Assay results: patent US20030229451A1, “Methods and systems for analyzing complex biological systems” (priority 2001, published 2003)

How the values were obtained:
[1] = tested on: Arabidopsis thaliana plants; assay: SOA1 phenotypic analysis of herbicide-treated Arabidopsis (MIC, Tmic, leaf traits); type: in vivo; conditions: for characteristic morphological symptoms: herbicide-treated Arabidopsis; for leafCurling Dev. / leafTwisting Dev. / leafWidth Dev. / matureLeafAnthocyanins Dev. / matureLeafChlorosis Dev. / matureLeafNecrosis Dev. / newLeafAnthocyanins Dev. / newLeafChlorosis Dev. / newLeafNecrosis Dev. / pointedLeaves Dev.: numeric value standardized to mock treated; for tMic Dev.: time to full range of symptoms at MIC, coded
Arabidopsis thaliana = assay: MOA1 biochemical (metabolite) profiling by LC-MS and GC-MS

SMILES | characteristic morphological symptoms [1] | leafCurling Dev. [1] | leafTwisting Dev. [1] | leafWidth Dev. [1] | matureLeafAnthocyanins Dev. [1] | matureLeafChlorosis Dev. [1] | matureLeafNecrosis Dev. [1] | newLeafAnthocyanins Dev. [1] | newLeafChlorosis Dev. [1] | newLeafNecrosis Dev. [1] | pointedLeaves Dev. [1] | tMic Dev. [1] | Number of Metabolites Changed: (unknown #) (Arabidopsis thaliana; 20 min, p < 0.05) | Number of Metabolites Changed: Total # (Arabidopsis thaliana; 20 min, p < 0.05) | Number of Metabolites Changed: (unknown #) (Arabidopsis thaliana; 20 min, p < 0.11) | Number of Metabolites Changed: Total # (Arabidopsis thaliana; 20 min, p < 0.11) | Number of Metabolites Changed: (unknown #) (Arabidopsis thaliana; 1 hr, p < 0.05) | Number of Metabolites Changed: Total # (Arabidopsis thaliana; 1 hr, p < 0.05) | Number of Metabolites Changed: (unknown #) (Arabidopsis thaliana; 1 hr, p < 0.11) | Number of Metabolites Changed: Total # (Arabidopsis thaliana; 1 hr, p < 0.11) | other results
CC(C)C1(C)N=C(c2ncccc2C(=O)O)NC1=O (stereo not drawn) [Imazapyr] | anthocyanin accumulation in the older leaves accompanied by chlorosis of the newly emerging leaves | 0 | 0 | 0 | 2 | 0 | 0 | 0 | 2 | 0 | 0 | 2 | 2 | 5 | 3 | 9 | 6 | 8 | 10 | 14 | 
COc1c(Cl)ccc(Cl)c1C(=O)O [Dicamba] |  | 2 | 2 | −2 | 0 | 2 | 0 | 0 | 0 | 0 | 0 | 2 |  |  |  |  |  |  |  |  | 
O=C(O)c1cc(Oc2ccc(C(F)(F)F)cc2Cl)ccc1[N+](=O)[O-] [Acifluorfen] | Necrotic leaf flecks | 1 | 0 | 0 | 0 | 0 | 1 | 0 | 0 | 3 | 0 | 1 | 11 | 17 | 20 | 32 | 13 | 19 | 22 | 31 | 
CSc1nnc(C(C)(C)C)c(=O)n1N [Metribuzin] | rapid and widespread leaf necrosis | 1 | 0 | −2 | 0 | 2 | 4 | 0 | 2 | 4 | 1 | 1 |  |  |  |  |  |  |  |  | 
CCC(C)(CC)c1cc(NC(=O)c2c(OC)cccc2OC)on1 [Isoxaben] |  |  |  |  |  |  |  |  |  |  |  |  | 12 | 26 | 21 | 45 | 16 | 25 | 33 | 55 | 
CNc1cnn(-c2cccc(C(F)(F)F)c2)c(=O)c1Cl [Norflurazon] |  |  |  |  |  |  |  |  |  |  |  |  | 27 | 38 | 36 | 55 | 5 | 6 | 8 | 12 | 
CCSC(=O)N(CC(C)C)CC(C)C [Butylate] |  |  |  |  |  |  |  |  |  |  |  |  | 10 | 17 | 21 | 33 | 12 | 18 | 22 | 31 | 
c1cc[n+]2c(c1)-c1cccc[n+]1CC2 [Diquat] | rapid and widespread leaf necrosis | 2 | 0 | −2 | 0 | 1 | 4 | 0 | 1 | 4 | 1 | 2 |  |  |  |  |  |  |  |  | 
CCc1cnc(C2=NC(C)(C(C)C)C(=O)N2)c(C(=O)O)c1 (stereo not drawn) [Imazethapyr] | anthocyanin accumulation in the older leaves accompanied by chlorosis of the newly emerging leaves | 1 | 1 | 0 | 3 | 0 | 0 | 0 | 2 | 0 | 0 | 2 |  |  |  |  |  |  |  |  | 
CC(C)OC(=O)Nc1cccc(Cl)c1 [Chloropropham] |  |  |  |  |  |  |  |  |  |  |  |  | 8 | 12 | 10 | 17 | 5 | 12 | 10 | 20 | 
COC(=O)c1cc(Oc2ccc(Cl)cc2Cl)ccc1[N+](=O)[O-] [Bifenox] | Necrotic leaf flecks | 1 | 0 | 0 | 0 | 0 | 1 | 0 | 0 | 3 | 0 | 1 |  |  |  |  |  |  |  |  | 
O=C(O)COc1ccc(Cl)cc1Cl [2,4-D] |  | 1 | 2 | −1 | 1 | 2 | 0 | 0 | 1 | 0 | 0 | 2 | 2 | 3 | 8 | 13 | 3 | 7 | 15 | 25 | Symptom Class ([1]; three-week-old Arabidopsis, phenotype class (FIG. 12)): 5
O=C(O)Cn1c(=O)sc2cccc(Cl)c21 [Benazolin] |  | 2 | 2 | −2 | 0 | 0 | 0 | 0 | 0 | 0 | 0 | 2 |  |  |  |  |  |  |  |  | 
CN(C)C(=O)Nc1ccc(Cl)c(Cl)c1 [Diuron] | rapid and widespread leaf necrosis | 1 | 0 | −2 | 0 | 2 | 4 | 0 | 2 | 4 | 1 | 1 |  |  |  |  |  |  |  |  | 
